# Patent US20250092065A1, “2-(INDAZOL-5-YL)-6-(PIPERIDIN-4-YL)-1,7-NAPHTHYRIDINE DERIVATIVES AND RELATED COMPOUNDS AS MODULATORS FOR SPLICING NUCLEIC ACIDS AND FOR THE TREATMENT OF PROLIFERATIVE DISEASES” (REMIX THERAPEUTICS INC., priority 2022, published 2025)
# Legend:
# [1] = test system: HTT; assay: HiBiT protein abundance assay, HTT (K562 HiBiT knock-in); type: cell-based, human; conditions: HiBiT knock-in K562 cells, 24 hours, top dose 10 μM
# Procedure, shortened: (§1)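 K562 HiBiT knock-in, 24 h, 37 °C, top 10 μM final, 3-fold ×10, DMSO ≤0.25%. Lytic HiBiT luminescence; PC = parental K562, NC = DMSO; 4PL IC50.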
# [2] = test system: K562 cells; assay: Cell Titer Glo 2.0 cell viability (toxicity) assay, K562; conditions: 500 cells/well, 72 hours
# [3] = test system: Target C; assay: RT-qPCR canonical junction panel assay, Target C mRNA; type: cell-based; conditions: Table 4, read-out: Target C IC50 (decrease in CJ mRNA levels)
# Procedure, shortened: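 IC50 is the concentration giving 50% CJ decrease, from a 4-parameter logistic fit of percent response; response derived from ΔΔCt against housekeeper and DMSO over a fixed ΔCt window, with canonical exon-junction qPCR in compound-treated K562 or A673 cells.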
# [4] = test system: MYB; assay: HiBiT protein abundance assay, MYB (K562 HiBiT knock-in); type: cell-based, human; conditions: HiBiT knock-in K562 cells, 24 hours, top dose 10 μM
# Procedure, shortened: as §1
# [5] = test system: Target C; assay: HiBiT protein abundance assay, Target C (K562 HiBiT knock-in); type: cell-based, human; conditions: HiBiT knock-in K562 cells, 24 hours, top dose 10 μM
# Procedure, shortened: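 K562 HiBiT knock-in cells (10000/well) were treated 24 h at 37° C with a 10-point 3-fold dilution series (top 10 μM final, ≤0.25% DMSO). HiBiT luminescence was read after lytic LgBiT detection. Percent response used unmodified K562 and DMSO-treated knock-in controls, and IC50 came from a four-parameter fit at 50% of untreated.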
smiles,measurement,setting,value
"Cc1nc2cc(O)c(-c3ccc4nc(N5CCNCC5)ccc4n3)cc2o1 [Compound 408, 2-methyl-6-[6-(piperazin-1-yl)-1,5-naphthyridin-2-yl]-1,3-benzoxazol-5-ol]",IC50,[1],100 to 1000 nM
same,"Effect of Exemplary Compounds on Cell Viability, K562",[2],B (B represents 100-1000 nM)
same,IC50,[3],1000 to 10000 nM
same,IC50,[4],100 to 1000 nM
same,IC50,[5],100 to 1000 nM
Cc1nc2cc(O)c(-c3ccc4nc(N5CCN[C@@H](C)C5)ccc4n3)cc2o1 [Compound 409],IC50,[1],100 to 1000 nM
same,"Effect of Exemplary Compounds on Cell Viability, K562",[2],B (B represents 100-1000 nM)
same,IC50,[3],1000 to 10000 nM
same,IC50,[4],100 to 1000 nM
same,IC50,[5],100 to 1000 nM
Cc1nc2cc(O)c(-c3ccc4nc(N5CCN6CCCC6C5)ccc4n3)cc2o1 (centres unmarked) [Compound 410],IC50,[1],100 to 1000 nM
same,"Effect of Exemplary Compounds on Cell Viability, K562",[2],B (B represents 100-1000 nM)
same,IC50,[3],100 to 1000 nM
same,IC50,[4],100 to 1000 nM
same,IC50,[5],100 to 1000 nM
Cc1nc2cc(O)c(-c3ccc4nc(N5CCNC6(CC6)C5)ccc4n3)cc2o1 [Compound 411],IC50,[1],1000 to 10000 nM
same,"Effect of Exemplary Compounds on Cell Viability, K562",[2],C (C represents 1000-9999 nM)
same,IC50,[3],1000 to 10000 nM
same,IC50,[4],100 to 1000 nM
same,IC50,[5],1000 to 10000 nM
Cc1nc2cc(O)c(-c3ccc4nc(N5CCC(NC(C)(C)C)CC5)ccc4n3)cc2o1 [Compound 412],IC50,[1],100 to 1000 nM
same,"Effect of Exemplary Compounds on Cell Viability, K562",[2],B (B represents 100-1000 nM)
same,IC50,[3],100 to 1000 nM
same,IC50,[4],100 to 1000 nM
same,IC50,[5],100 to 1000 nM
"Cc1nc2cc(O)c(-c3ccc4nc(N5CC[C@@H](NC(C)(C)C)C5)ncc4n3)cc2o1 [Compound 413, 6-{2-[(3R)-3-(tert-butylamino)pyrrolidin-1-yl]pyrido[3,2-d]pyrimidin-6-yl}-2-methyl-1,3-benzoxazol-5-ol]",IC50,[1],< 100 nM
same,"Effect of Exemplary Compounds on Cell Viability, K562",[2],B (B represents 100-1000 nM)
same,IC50,[3],< 100 nM
same,IC50,[4],< 100 nM
same,IC50,[5],< 100 nM
"Cc1nc2cc(O)c(-c3ccc4nc(N5CC[C@H](NC(C)(C)C)C5)ncc4n3)cc2o1 [Compound 414, 6-{2-[(3S)-3-(tert-butylamino)pyrrolidin-1-yl]pyrido[3,2-d]pyrimidin-6-yl}-2-methyl-1,3-benzoxazol-5-ol]",IC50,[1],100 to 1000 nM
same,"Effect of Exemplary Compounds on Cell Viability, K562",[2],B (B represents 100-1000 nM)
same,IC50,[3],1000 to 10000 nM
same,IC50,[4],1000 to 10000 nM
same,IC50,[5],100 to 1000 nM
"Cc1nc2c(C)c(O)c(-c3ccc4nc(N5CC[C@H](NC(C)C)C5)ncc4n3)cc2o1 [Compound 416, 6-{2-[(3S)-3-(isopropylamino)pyrrolidin-1-yl]pyrido[3,2-d]pyrimidin-6-yl}-2,4-dimethyl-1,3-benzoxazol-5-ol]",IC50,[1],< 100 nM
same,"Effect of Exemplary Compounds on Cell Viability, K562",[2],A (A represents <100 nM)
same,IC50,[3],< 100 nM
same,IC50,[4],< 100 nM
same,IC50,[5],< 100 nM
Cc1nc2cc(O)c(-c3ccc4cc(N5CC[C@@H](NC(C)(C)C)C5)ncc4n3)cc2o1 [Compound 417],IC50,[1],100 to 1000 nM
same,"Effect of Exemplary Compounds on Cell Viability, K562",[2],B (B represents 100-1000 nM)
same,IC50,[3],1000 to 10000 nM
same,IC50,[4],< 100 nM
same,IC50,[5],1000 to 10000 nM
Cc1nc2cc(O)c(-c3ccc4nc(N5CCN[C@@H](C6CC6)C5)ccc4n3)cc2o1 [Compound 418],IC50,[1],100 to 1000 nM
same,"Effect of Exemplary Compounds on Cell Viability, K562",[2],B (B represents 100-1000 nM)
same,IC50,[3],100 to 1000 nM
same,IC50,[4],100 to 1000 nM
same,IC50,[5],100 to 1000 nM
Cc1nc2cc(O)c(-c3ccc4nc(N5C[C@@H](C)N[C@@H](C6CC6)C5)ccc4n3)cc2o1 [Compound 419],IC50,[1],100 to 1000 nM
same,"Effect of Exemplary Compounds on Cell Viability, K562",[2],B (B represents 100-1000 nM)
same,IC50,[3],100 to 1000 nM
same,IC50,[4],100 to 1000 nM
same,IC50,[5],100 to 1000 nM
Cc1nc2cc(O)c(-c3ccc4nc(N5C[C@@H](C)N[C@@H](C)C5)ccc4n3)cc2o1 [Compound 420],IC50,[1],100 to 1000 nM
same,"Effect of Exemplary Compounds on Cell Viability, K562",[2],B (B represents 100-1000 nM)
same,IC50,[3],1000 to 10000 nM
same,IC50,[4],100 to 1000 nM
same,IC50,[5],100 to 1000 nM
Cc1nc2cc(O)c(-c3ccc4nc(N5CCN[C@H](C6CC6)C5)ccc4n3)cc2o1 [Compound 421],IC50,[1],100 to 1000 nM
same,"Effect of Exemplary Compounds on Cell Viability, K562",[2],B (B represents 100-1000 nM)
same,IC50,[3],100 to 1000 nM
same,IC50,[4],100 to 1000 nM
same,IC50,[5],100 to 1000 nM
Cc1nc2cc(O)c(-c3ccc4nc(N5CCN[C@@H](C(C)C)C5)ccc4n3)cc2o1 [Compound 422],IC50,[1],100 to 1000 nM
same,"Effect of Exemplary Compounds on Cell Viability, K562",[2],B (B represents 100-1000 nM)
same,IC50,[3],1000 to 10000 nM
same,IC50,[4],100 to 1000 nM
same,IC50,[5],100 to 1000 nM
Cc1nc2cc(O)c(-c3ccc4nc(N5CCC(N)CC5)ccc4n3)cc2o1 [Compound 424],IC50,[1],1000 to 10000 nM
same,"Effect of Exemplary Compounds on Cell Viability, K562",[2],B (B represents 100-1000 nM)
same,IC50,[3],1000 to 10000 nM
same,IC50,[4],1000 to 10000 nM
same,IC50,[5],100 to 1000 nM
CNC1CCN(c2ccc3nc(-c4cc5oc(C)nc5cc4O)ccc3n2)CC1 [Compound 425],IC50,[1],1000 to 10000 nM
same,"Effect of Exemplary Compounds on Cell Viability, K562",[2],B (B represents 100-1000 nM)
same,IC50,[3],> 10000 nM
same,IC50,[4],1000 to 10000 nM
same,IC50,[5],1000 to 10000 nM
"Cc1nc2c(C)c(O)c(-c3ccc4nc(N5CC[C@H](NC6CC6)C5)ncc4n3)cc2o1 [Compound 433, 6-{2-[(3S)-3-(cyclopropylamino)pyrrolidin-1-yl]pyrido[3,2-d]pyrimidin-6-yl}-2,4-dimethyl-1,3-benzoxazol-5-ol]",IC50,[1],< 100 nM
same,"Effect of Exemplary Compounds on Cell Viability, K562",[2],B (B represents 100-1000 nM)
same,IC50,[3],100 to 1000 nM
same,IC50,[4],100 to 1000 nM
same,IC50,[5],< 100 nM
"Cc1nc2cc(O)c(-c3ccc4nc(N5CC[C@H](NC6CC6)C5)ncc4n3)cc2o1 [Compound 435, 6-{2-[(3S)-3-(cyclopropylamino)pyrrolidin-1-yl]pyrido[3,2-d]pyrimidin-6-yl}-2-methyl-1,3-benzoxazol-5-ol]",IC50,[1],100 to 1000 nM
same,"Effect of Exemplary Compounds on Cell Viability, K562",[2],B (B represents 100-1000 nM)
same,IC50,[3],100 to 1000 nM
same,IC50,[4],100 to 1000 nM
same,IC50,[5],100 to 1000 nM
Cc1nc2c(C)c(O)c(-c3ccc4nc(N5CC[C@@H](NC(C)(C)C)C5)ncc4n3)cc2o1 [Compound 436],IC50,[1],< 100 nM
same,"Effect of Exemplary Compounds on Cell Viability, K562",[2],A (A represents <100 nM)
same,IC50,[3],< 100 nM
same,IC50,[4],< 100 nM
same,IC50,[5],< 100 nM
Cc1nc2c(C)c(O)c(-c3ccc4nc(N5CC[C@H](NC(C)(C)C)C5)ncc4n3)cc2o1 [Compound 437],IC50,[1],< 100 nM
same,"Effect of Exemplary Compounds on Cell Viability, K562",[2],B (B represents 100-1000 nM)
same,IC50,[3],100 to 1000 nM
same,IC50,[4],100 to 1000 nM
same,IC50,[5],< 100 nM
"Cc1c(O)c(-c2ccc3nc(N4CC[C@@H](NC5CC5)C4)ncc3n2)cc2cn(C)nc12 [Compound 438, 5-{2-[(3R)-3-(cyclopropylamino)pyrrolidin-1-yl]pyrido[3,2-d]pyrimidin-6-yl}-2,7-dimethylindazol-6-ol]",IC50,[1],< 100 nM
same,"Effect of Exemplary Compounds on Cell Viability, K562",[2],B (B represents 100-1000 nM)
same,IC50,[3],100 to 1000 nM
same,IC50,[4],100 to 1000 nM
same,IC50,[5],< 100 nM
"Cc1c(O)c(-c2ccc3nc(N4CC[C@H](NC5CC5)C4)ncc3n2)cc2cn(C)nc12 [Compound 439, 5-{2-[(3S)-3-(cyclopropylamino)pyrrolidin-1-yl]pyrido[3,2-d]pyrimidin-6-yl}-2,7-dimethylindazol-6-ol]",IC50,[1],< 100 nM
same,"Effect of Exemplary Compounds on Cell Viability, K562",[2],B (B represents 100-1000 nM)
same,IC50,[3],100 to 1000 nM
same,IC50,[4],100 to 1000 nM
same,IC50,[5],< 100 nM
